In patent publication EP0618203A1, “3-O-acylated catechins and method of producing same” (MITSUI NORIN CO., LTD., priority 1993, dated 1994):

Columns and labels:
[1] = Antioxidative activity in salad oil, Rancimat method (induction time); details: 100ppm in salad oil, 120°C, Control 3.40
Procedure: We investigated the antioxidative activity of the acylated derivatives of (-)-epigallocatechin, one of the most powerful antioxidants in tea. […] (The reaction was conducted at a temperature of 120°C).

[2] = Solubility in fats and oils (turbidity of salad oil, absorbance at 660nm); assay type: physicochemical; details: sample added to salad oil (Honen Corporation) at 100ppm; turbidity as absorbance at 660nm; Control 0.057; lower = better dissolved
Procedure: Each sample was added to salad oil (Honen Corporation) in a concentration of 100ppm, and turbidity was determined by measuring absorbance at 660nm.

SMILES | Induction Time [1] [h] | OD 660 [2]
CCCC(=O)O[C@@H]1Cc2c(O)cc(O)cc2O[C@@H]1c1cc(O)c(O)c(O)c1 [(-)-3-0-Butyryl epigallocatechin, (-)-3-0-butyryl-epigallocatechin] | 6.07 | 
CCC(=O)O[C@@H]1Cc2c(O)cc(O)cc2O[C@@H]1c1cc(O)c(O)c(O)c1 [(-)-3-0-Propionyl epigallocatechin, (-)-3-0-propionyl epigallocatechin] | 6.02 | 
Oc1cc(O)c2c(c1)O[C@H](c1cc(O)c(O)c(O)c1)[C@H](O)C2 [(-)-Epigallocatechin, (-)-epigallocatechin] | 6.03 | 0.277
